pIC50: −log10 of the molar value.

We go through 30 compounds from patent US20190134005A1 (BioMarin Pharmaceutical Inc., priority 2016, published 2019).

The assay concerns the target T1, human CGT (Homo sapiens, UniProt Q16880).
T1 sequence (Q16880 21-541): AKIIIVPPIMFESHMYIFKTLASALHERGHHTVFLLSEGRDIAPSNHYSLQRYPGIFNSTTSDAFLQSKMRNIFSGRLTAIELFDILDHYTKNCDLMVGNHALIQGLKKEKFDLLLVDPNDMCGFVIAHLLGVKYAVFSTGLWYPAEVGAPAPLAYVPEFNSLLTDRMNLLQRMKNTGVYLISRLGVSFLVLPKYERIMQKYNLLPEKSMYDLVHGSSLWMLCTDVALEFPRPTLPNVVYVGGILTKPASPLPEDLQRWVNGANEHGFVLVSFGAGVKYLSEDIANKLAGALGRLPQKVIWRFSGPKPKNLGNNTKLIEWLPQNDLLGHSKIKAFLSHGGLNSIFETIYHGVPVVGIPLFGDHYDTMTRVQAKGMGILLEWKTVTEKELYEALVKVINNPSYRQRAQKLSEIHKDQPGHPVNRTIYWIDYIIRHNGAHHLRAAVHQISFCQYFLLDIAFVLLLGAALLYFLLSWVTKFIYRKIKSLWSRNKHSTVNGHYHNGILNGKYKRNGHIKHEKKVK
As to the kind of experiment: CGT Enzyme Assay (Biological Example 2, RapidFire/MS/MS method with 0.01% Tween 80 added). Format: biochemical. Particulars: enzymatic assay, CHO/CGT lysate. Put shortly: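 Lysate of CHO cells transfected with full-length human CGT, 0.5% DMSO final, 0.01% Tween 80 added; reactions stopped with methanol:acetonitrile holding internal standard. C6-NBD-dihydro-galactosylceramide and C6-NBD-dihydro-ceramide measured by RapidFire/MS/MS (ESI negative), product peak area normalized to internal standard.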

Regarding `O=C1N(c2ccc(Cl)cc2)[C@@H]2CCC[C@]2(c2cccc(C(F)F)c2)N1c1ccc(Cl)cc1` [Example 16-2, (3aR,6aR)-1,3-bis(4-chlorophenyl)-3a-(3-(difluoromethyl)phenyl)hexahydrocyclopenta[d]imidazol-2(1H)-one], the pIC50 (in general, the IC50 on a negative log10 scale, so that one unit is a factor of ten) is 4.52 to 5.00.

Consider `O=C1N(c2ccc(Cl)cc2)[C@H]2CCC[C@@]2(c2cccc(C(F)F)c2)N1c1ccc(Cl)cc1` [Example 16-1, (3aS,6aS)-1,3-bis(4-chlorophenyl)-3a-(3-(difluoromethyl)phenyl)hexahydrocyclopenta[d]imidazol-2(1H)-one], for which the pIC50 was 4.52 to 5.00. The result for `Cc1ccc(N2C(=O)N(c3ccc(C)cc3)C3(CCCC3)[C@H]2c2cccc(OC(F)(F)F)c2)cc1` [Example 35-1, (R)-1,3-di-p-tolyl-4-(3-(trifluoromethoxy)phenyl)-1,3-diazaspiro[4.4]nonan-2-one] reads 5.00 to 6.00; that for `Cc1ccc(N2C(=O)N(c3ccc(C#N)cc3)C(C)(C)[C@@H]2c2cccc(C#N)c2)cc1` [Example 54-2, (S)-3-(1-(4-cyanophenyl)-5,5-dimethyl-2-oxo-3-(p-tolyl)imidazolidin-4-yl)benzonitrile], above 6.00; that for `CC[C@]1(C)[C@@H](c2cccc(OC(F)(F)F)c2)N(c2ccc(C#N)cc2)C(=O)N1c1ccc(C#N)cc1` [Example 51-3, 4,4′-((4R,5R)-4-ethyl-4-methyl-2-oxo-5-(3-(trifluoromethoxy)phenyl)imidazolidine-1,3-diyl)dibenzonitrile], 5.00 to 6.00. The result for `C[C@H]1[C@@H](c2ccccc2)N(c2ccc(Br)cc2)C(=O)N1c1ccc(Br)cc1` [Example 2-3, (4S,5R)-1,3-bis(4-bromophenyl)-4-methyl-5-phenylimidazolidin-2-one] reads 5.00 to 6.00; that for `CC1(C)[C@@H](c2cccc(OC(F)(F)F)c2)N(c2cccc(Cl)c2)C(=O)N1c1cccc(Cl)c1` [Example 28-1, (R)-1,3-bis(3-chlorophenyl)-4,4-dimethyl-5-(3-(trifluoromethoxy)phenyl)imidazolidin-2-one], 4.52 to 5.00. The result for `CCC[C@@]1(C)[C@H](c2cccc(OC(F)(F)F)c2)N(c2ccc(Cl)cc2)C(=O)N1c1ccc(Cl)cc1` [Example 22-5, (4S,5S)-1,3-bis(4-chlorophenyl)-4-methyl-4-propyl-5-(3-(trifluoromethoxy)phenyl)imidazolidin-2-one] reads 4.52 to 5.00; that for `O=C1N(c2ccc(Cl)cc2)C2CCCC2(c2cccc(OC(F)(F)F)c2)N1c1ccc(Cl)cc1` (stereo not drawn) [Example 12], 5.00 to 6.00; that for `O=C1N(c2ccc(Cl)cc2)C2CCOC[C@@]2(c2cccc(OC(F)(F)F)c2)N1c1ccc(Cl)cc1` (stereo partly drawn) [Example 31-2, (3aS)-1,3-bis(4-chlorophenyl)-3a-(3-(trifluoromethoxy)phenyl)hexahydropyrano[3,4-d]imidazol-2(3H)-one], above 6.00.

In turn, `CC[C@@]1(C)[C@@H](c2cccc(C#N)c2)N(c2ccc(Cl)cc2)C(=O)N1c1ccc(Cl)cc1` [Example 34-3, 3-((4R,5S)-1,3-bis(4-chlorophenyl)-5-ethyl-5-methyl-2-oxoimidazolidin-4-yl)benzonitrile] showed a pIC50 above 6.00. In turn, `Cc1ccc(N2C(=O)N(c3ccc(C)cc3)C3(COC3)[C@H]2c2cccc(C#N)c2)cc1` [Example 32-1, (R)-3-(6-oxo-5,7-di-p-tolyl-2-oxa-5,7-diazaspiro[3.4]octan-8-yl)benzonitrile] had a pIC50 of 4.52 to 5.00. On to `CCC[C@]1(C)[C@@H](c2cccc(OC(F)(F)F)c2)N(c2ccc(Cl)cc2)C(=O)N1c1ccc(Cl)cc1` [Example 22-2, (4R,5R)-1,3-bis(4-chlorophenyl)-4-methyl-4-propyl-5-(3-(trifluoromethoxy)phenyl)imidazolidin-2-one], for which the pIC50 is above 6.00.

Turning to `CC1(C)[C@H](c2cccc(OC(F)(F)F)c2)N(c2ccccc2)C(=O)N1c1ccccc1` [Example 26-2, (S)-4,4-dimethyl-1,3-diphenyl-5-(3-(trifluoromethoxy)phenyl)imidazolidin-2-one], the pIC50 is 5.00 to 6.00. The result for `CC1(C)[C@@H](c2cccc(OC(F)(F)F)c2)N(c2ccc(C#N)cc2)C(=O)N1c1ccc(Cl)cc1` [Example 40-1, (R)-4-(3-(4-chlorophenyl)-4,4-dimethyl-2-oxo-5-(3-(trifluoromethoxy)phenyl)imidazolidin-1-yl)benzonitrile] reads 4.52 to 5.00; that for `COC[C@@]1(C)[C@@H](c2cccc(C#N)c2)N(c2ccc(Cl)cc2)C(=O)N1c1ccc(Cl)cc1` [Example 38-1, 3-((4R,5R)-1,3-bis(4-chlorophenyl)-5-(methoxymethyl)-5-methyl-2-oxoimidazolidin-4-yl)benzonitrile], 5.00 to 6.00. Turning to `CC1(C)[C@@H](c2cccc(C(F)(F)F)c2)N(c2ccc(Cl)cc2)C(=O)N1c1ccc(Cl)cc1` [Example 6-1, (R)-1,3-bis(4-chlorophenyl)-4,4-dimethyl-5-(3-(trifluoromethyl)phenyl)imidazolidin-2-one], the pIC50 is 4.52 to 5.00. Consider `CC1(C)[C@H](c2cccc(OC(F)(F)F)c2)N(c2ccc(Cl)cc2)C(=O)N1c1ccc(C#N)cc1` [Example 41-2, (S)-4-(3-(4-chlorophenyl)-5,5-dimethyl-2-oxo-4-(3-(trifluoromethoxy)phenyl)imidazolidin-1-yl)benzonitrile], for which the pIC50 is above 6.00.

On to `CCC[C@@]1(C)[C@@H](c2cccc(OC(F)(F)F)c2)N(c2ccc(C#N)cc2)C(=O)N1c1ccc(C#N)cc1` [Example 52-6, 4,4′-((4S,5R)-4-methyl-2-oxo-4-propyl-5-(3-(trifluoromethoxy)phenyl)imidazolidine-1,3-diyl)dibenzonitrile], for which the pIC50 is 4.52 to 5.00. Then `CC1(C)[C@H](c2cccc(OC(F)(F)F)c2)N(c2cccc(Cl)c2)C(=O)N1c1cccc(Cl)c1` [Example 28-2, (S)-1,3-bis(3-chlorophenyl)-4,4-dimethyl-5-(3-(trifluoromethoxy)phenyl)imidazolidin-2-one], with above 6.00; and `CC1(C)[C@H](c2cccc(C#N)c2)N(c2ccc(Cl)cc2)C(=O)N1c1ccc(Cl)cc1` [Example 10-2, (S)-3-(1,3-bis(4-chlorophenyl)-5,5-dimethyl-2-oxoimidazolidin-4-yl)benzonitrile], with above 6.00.

`Cc1ccc(N2C(=O)N(c3ccc(Cl)cc3)[C@H](c3cccc(OC(F)(F)F)c3)C2(C)C)cc1` [Example 56-1, (R)-1-(4-chlorophenyl)-4,4-dimethyl-3-(p-tolyl)-5-(3-(trifluoromethoxy)phenyl)imidazolidin-2-one] gave a pIC50 of 4.52 to 5.00. The result for `Cc1ccc(N2C(=O)N(c3ccc(C)cc3)C(C)(C)[C@@H]2c2cccc(OC(F)(F)F)c2)cc1` [Example 21-2, (S)-4,4-dimethyl-1,3-di-p-tolyl-5-(3-(trifluoromethoxy)phenyl)imidazolidin-2-one] reads above 6.00. Then `CCC1(CC)[C@@H](c2cccc(OC(F)(F)F)c2)N(c2ccc(Cl)cc2)C(=O)N1c1ccc(Cl)cc1` [Example 17-1, (R)-1,3-bis(4-chlorophenyl)-4,4-diethyl-5-(3-(trifluoromethoxy)phenyl)imidazolidin-2-one], with above 6.00; and `CC1(C)[C@@H](c2cccc(OC(F)(F)F)c2)N(c2ccc(Cl)cc2)C(=O)N1c1ccc(C#N)cc1` [Example 41-1, (R)-4-(3-(4-chlorophenyl)-5,5-dimethyl-2-oxo-4-(3-(trifluoromethoxy)phenyl)imidazolidin-1-yl)benzonitrile], with 4.52 to 5.00; and `C[C@]1(C(F)(F)F)[C@@H](c2cccc(OC(F)(F)F)c2)N(c2ccc(Br)cc2)C(=O)N1c1ccc(C#N)cc1` [Example 44-2, 4-((4R,5R)-3-(4-bromophenyl)-5-methyl-2-oxo-4-(3-(trifluoromethoxy)phenyl)-5-(trifluoromethyl)imidazolidin-1-yl)benzonitrile], with above 6.00. The result for `Cc1ccc(N2C(=O)N(c3ccc(C#N)cc3)[C@@H](c3cccc(OC(F)(F)F)c3)C2(C)C)cc1` [Example 50-2, (S)-4-(4,4-dimethyl-2-oxo-3-(p-tolyl)-5-(3-(trifluoromethoxy)phenyl)imidazolidin-1-yl)benzonitrile] reads 4.52 to 5.00; that for `CC[C@@]1(C)[C@@H](c2cccc(OC(F)(F)F)c2)N(c2ccc(Cl)cc2)C(=O)N1c1ccc(Cl)cc1` [Example 19-4, (4S,5R)-1,3-bis(4-chlorophenyl)-4-ethyl-4-methyl-5-(3-(trifluoromethoxy)phenyl)imidazolidin-2-one], 5.00 to 6.00. The compound `C[C@@H]1[C@@H](c2cccc(C#N)c2)N(c2ccc(Cl)cc2)C(=O)N1c1ccc(Cl)cc1` [Example 5-1, 3-((4R,5R)-1,3-bis(4-chlorophenyl)-5-methyl-2-oxoimidazolidin-4-yl)benzonitrile] had a pIC50 of 4.52 to 5.00. The result for `N#Cc1ccc(N2C(=O)N(c3ccc(Cl)cc3)[C@@H](c3cccc(OC(F)(F)F)c3)C23COC3)cc1` [Example 46-2, (S)-4-(7-(4-chlorophenyl)-6-oxo-8-(3-(trifluoromethoxy)phenyl)-2-oxa-5,7-diazaspiro[3.4]octan-5-yl)benzonitrile] reads 5.00 to 6.00.
